In patent US8344002B2, “Compound having β-secretase inhibitory activity” (priority 2007, dated 2013):

molecular target: T1, recombinant human BACE-1 (rhBACE-1) (Homo sapiens, UniProt P56817); test: BACE1 inhibitory activity, rhBACE-1 with fluorogenic peptide substrate, reverse phase HPLC; format: biochemical; conditions: inhibitor 2 μM; MES buffer pH 5.0, 37° C., 60 minutes; read-out: Inhibitory rate (%) (2 μM)
T1 construct: expressed as only an extracellular region (amino acid 1-460 residues) of recombinant human β-secretase; His tag (C); purchased R&D systems (Minneapolis, Minn.); host or cells: murine myeloma cell line NS0
T1 sequence (P56817 46-460 limits assumed): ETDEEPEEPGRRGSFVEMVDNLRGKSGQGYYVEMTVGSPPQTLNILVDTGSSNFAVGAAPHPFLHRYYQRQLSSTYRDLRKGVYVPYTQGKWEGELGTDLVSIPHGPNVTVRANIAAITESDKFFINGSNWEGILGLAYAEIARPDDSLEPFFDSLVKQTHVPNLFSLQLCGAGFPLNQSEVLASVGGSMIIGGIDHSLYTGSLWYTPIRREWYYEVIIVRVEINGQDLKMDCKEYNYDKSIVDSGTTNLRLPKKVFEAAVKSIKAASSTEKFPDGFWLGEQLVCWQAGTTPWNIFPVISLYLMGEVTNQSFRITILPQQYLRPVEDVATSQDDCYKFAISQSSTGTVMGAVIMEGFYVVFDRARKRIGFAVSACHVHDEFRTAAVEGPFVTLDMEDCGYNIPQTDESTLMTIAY
From the text: Experiment Regarding Measurement of BACE1 Inhibitory Activity Enzyme Used in Measurement As an enzyme having β-secretase activity, recombinant human BACE-1 (rhBACE-1) purchased from R&D systems (Minneapolis, Minn.) was used. rhBACE-1 is expressed as only an extracellular region ([…] residues) of recombinant human β-secretase, with a His tag at its carboxyl terminus in murine myeloma cell line, NS0. Purified secreted rhBACE1 is a mixture of a pro entity (about 75 kDa) and a mature entity (about 72 kDa). […] Assessment of Enzyme Inhibitory Activity […] After incubation at 37° C. for 60 minutes, 20 μL of 20% trichloroacetic acid was added to stop the reaction. And, inhibition % was calculated by measuring a fluorescent intensity of the N-terminal fragment (Ex, 328 nm; […]

| Compound | inhibition at 2 µM [%] |
| --- | --- |
| C[C@@H](NC(=O)c1cc(=O)cc(C(=O)N[C@@H](Cc2ccccc2)[C@H](O)C(=O)Nc2cccc(-c3nn[nH]n3)c2)o1)c1ccccc1 [Example 1] | 70.1 |
| O=C(N[C@@H](Cc1ccccc1)[C@H](O)C(=O)Nc1cccc(-c2nn[nH]n2)c1)c1cc(=O)cc(C(=O)N(Cc2ccccc2)Cc2ccccc2)o1 [Example 2] | 28.8 |
| C[C@@H](NC(=O)c1cc(=O)cc(C(=O)N[C@@H](Cc2ccccc2)[C@H](O)C(=O)Nc2cccc(-c3nn[nH]n3)c2)o1)c1ccc([N+](=O)[O-])cc1 [Example 3] | 26.8 |
| COc1ccc([C@@H](C)NC(=O)c2cc(=O)cc(C(=O)N[C@@H](Cc3ccccc3)[C@H](O)C(=O)Nc3cccc(-c4nn[nH]n4)c3)o2)cc1 [Example 5] | 70.4 |
| CN(Cc1ccccc1)C(=O)c1cc(=O)cc(C(=O)N[C@@H](Cc2ccccc2)[C@H](O)C(=O)Nc2cccc(-c3nn[nH]n3)c2)o1 [Example 6] | 66.9 |
| C[C@@H](NC(=O)c1cc(=O)cc(C(=O)NC(Cc2ccccc2)[C@H](O)C(=O)Nc2cccc(-c3nn[nH]n3)c2)[nH]1)c1ccccc1 (stereo partly shown) [Example 7] | 50.8 |
| CC(C)(NC(=O)c1cc(=O)cc(C(=O)NC(Cc2ccccc2)[C@H](O)C(=O)Nc2cccc(-c3nn[nH]n3)c2)[nH]1)c1ccccc1 (stereo partly shown) [Example 8] | 65.1 |
| C[C@@H](NC(=O)c1cccc(C(=O)NC(Cc2ccccc2)[C@H](O)C(=O)Nc2cccc(-c3nn[nH]n3)c2)n1)c1ccccc1 (stereo partly shown) [Example 9] | 65.6 |
| CC(C)(NC(=O)c1cccc(C(=O)NC(Cc2ccccc2)[C@H](O)C(=O)Nc2cccc(-c3nn[nH]n3)c2)n1)c1ccccc1 (stereo partly shown) [Example 10] | 69.1 |
| O=C(NC(Cc1ccccc1)[C@H](O)C(=O)Nc1cccc(-c2nn[nH]n2)c1)c1cc(=O)cc(C(=O)N2COCC2c2ccccc2)o1 (stereo partly shown) [Example 13] | 95.6 |
| O=C(NC(Cc1ccccc1)[C@H](O)C(=O)Nc1cccc(-c2nn[nH]n2)c1)c1cc(=O)cc(C(=O)N2COCC2c2ccccc2)[nH]1 (stereo partly shown) [Example 14] | 82.7 |
| O=C(NC(Cc1ccccc1)[C@H](O)C(=O)Nc1cccc(-c2nn[nH]n2)c1)c1cccc(C(=O)N2COCC2c2ccccc2)n1 (stereo partly shown) [Example 15] | 92.6 |
| CS(=O)(=O)Oc1cc(C(=O)NC(Cc2ccccc2)[C@H](O)C(=O)Nc2cccc(-c3nn[nH]n3)c2)nc(C(=O)N2COCC2c2ccccc2)c1 (stereo partly shown) [Example 16] | 95.6 |
| CC(C)(NC(=O)c1cccc(C(=O)NC(Cc2ccccc2)[C@H](O)C(=O)NS(=O)(=O)C(F)(F)F)n1)c1ccccc1 (stereo partly shown) [Example 17] | 37.4 |
| CC(C)(NC(=O)c1cc(=O)cc(C(=O)N[C@@H](Cc2ccccc2)[C@H](O)C(=O)Nc2cccc(-c3nn[nH]n3)c2)o1)c1ccccc1 [Example 21] | 80.8 |
| C[C@@H](NC(=O)c1cc(=O)cc(C(=O)N[C@@H](Cc2ccccc2)[C@H](O)C(=O)Nc2cccc(-c3nn[nH]n3)c2)o1)c1ccc(F)cc1 [Example 22] | 75.8 |
